# Activity calls are given as the source filed them. No cut-off for these calls is given here.
# Experiments:
# [1] = test system: BMDM; assay: Modulation of NF-kappaB in Sprague-Dawley rat BMM assessed as inhibition of M-CSF/RANKL-induced osteoclast differentiation by measuring decrease in TRAP-positive multinucleated cells at 100 uM measured after 5 days by TRAP-staining based assay relative to control; assay type: tissue-based; settings: filed as modulator, time 5.0 day
# [2] = test system: BMDM; assay: Inhibition of p38 MAPK in BMM (unknown origin) assessed as suppression of RANKL/M-CSF-induced Nftac1 gene upregulation at 5 uM measured after 3 days by RT-PCR analysis; assay type: tissue-based; settings: time 3.0 day
# [3] = test system: BMDM; assay: Inhibition of p38 MAPK in BMM (unknown origin) assessed as inhibition of RANKL/M-CSF-induced osteoclast differentiation by measuring reduction in TRAP-positive multinucleated cells at 5 uM treated on day 0-2 by TRAP staining based assay relative to control; assay type: tissue-based; settings: time 2.0 day
# [4] = molecular target: T1, NF-kappa-B inhibitor alpha (Homo sapiens) (UniProt P25963); assay: Inhibition of RANKL-induced IkappaB-alpha activation in BMM (unknown origin) at 5 uM pretreated for 1 hr followed by RANKL stimulation for 5 to 15 mins by Western blot analysis; assay type: tissue-based
# T1 sequence (whole entry): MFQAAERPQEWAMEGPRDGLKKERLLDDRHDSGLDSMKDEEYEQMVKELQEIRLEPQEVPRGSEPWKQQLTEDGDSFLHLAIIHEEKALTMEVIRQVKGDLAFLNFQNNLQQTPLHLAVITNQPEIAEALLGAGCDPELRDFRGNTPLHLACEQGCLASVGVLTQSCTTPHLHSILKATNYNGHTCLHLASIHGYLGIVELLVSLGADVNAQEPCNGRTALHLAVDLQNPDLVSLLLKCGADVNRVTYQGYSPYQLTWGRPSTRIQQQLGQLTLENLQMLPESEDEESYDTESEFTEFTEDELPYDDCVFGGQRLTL
# [5] = test system: BMDM; assay: Inhibition of p38 MAPK in BMM (unknown origin) assessed as inhibition of M-CSF/RANKL-induced osteoclastogenesis by measuring reduction in multinucleated TRAP+ cells at 5 uM measured after 4 days by TRAP-staining based analysis relative to control; assay type: cell-based; settings: time 4.0 day
# [6] = test system: BMDM; assay: Inhibition of p38 MAPK in BMM (unknown origin) assessed as suppression of RANKL/M-CSF-induced Nftac1 upregulation at 5 uM measured after 3 days by Western blot analysis; assay type: tissue-based; settings: time 3.0 day
# [7] = test system: BMDM; assay: Inhibition of p38 MAPK in BMM (unknown origin) assessed as inhibition of RANKL/M-CSF-induced osteoclast differentiation by measuring reduction in TRAP-positive multinucleated cells at 5 uM treated on day 0-4 by TRAP staining based assay; settings: time 4.0 day
# [8] = test system: BMDM; assay: Inhibition of p38 MAPK in BMM (unknown origin) assessed as suppression of RANKL/M-CSF-induced Acp5 gene upregulation at 5 uM measured after 3 days by RT-PCR analysis; assay type: tissue-based; settings: time 3.0 day
# [9] = test system: BMDM; assay: Inhibition of RANKL-induced Akt activation in BMM (unknown origin) at 5 uM pretreated for 1 hr followed by RANKL stimulation for 5 to 15 mins by Western blot analysis; assay type: tissue-based
# [10] = test system: BMDM; assay: Inhibition of p38 MAPK in BMM (unknown origin) assessed as suppression of RANKL/M-CSF-induced CTSK gene upregulation at 5 uM measured after 3 days by RT-PCR analysis; assay type: tissue-based; settings: time 3.0 day
# [11] = test system: BMDM; assay: Inhibition of p38 MAPK in BMM (unknown origin) assessed as suppression of RANKL/M-CSF-induced CTSK upregulation at 5 uM measured after 3 days by Western blot analysis; assay type: tissue-based; settings: time 3.0 day
# [12] = test system: BMDM; assay: Inhibition of p38 MAPK in BMM (unknown origin) assessed as inhibition of M-CSF/RANKL-induced osteoclastogenesis by measuring reduction in multinucleated TRAP+ cells measured after 4 days by TRAP-staining based analysis; assay type: cell-based; settings: dose microM 1-5, time 4.0 day
# [13] = Cytotoxicity against BMM (unknown origin) assessed as reduction in cell viability at 5 uM after 3 days in presence of M-CSF by MTT assay; assay type: tissue-based; settings: bmdm, 72 h, time 3 day
# [14] = test system: BMDM; assay: Inhibition of RANKL-induced p38 activation in BMM (unknown origin) at 5 uM pretreated for 1 hr followed by RANKL stimulation for 5 to 15 mins by Western blot analysis; assay type: tissue-based
# [15] = test system: BMDM; assay: Inhibition of p38 MAPK in BMM (unknown origin) assessed as suppression of RANKL/M-CSF-induced DCSTAMP gene upregulation at 5 uM measured after 3 days by RT-PCR analysis; assay type: tissue-based; settings: time 3.0 day
# [16] = test system: BMDM; assay: Inhibition of p38 MAPK in BMM (unknown origin) assessed as suppression of RANKL/M-CSF-induced MMP9 gene upregulation at 5 uM measured after 3 days by RT-PCR analysis; assay type: tissue-based; settings: time 3.0 day
# [17] = test system: BMDM; assay: Inhibition of M-CSF-induced ERK activation in BMM (unknown origin) at 5 uM pretreated for 1 hr followed by M-CSF stimulation for 5 to 30 mins by Western blot analysis; assay type: tissue-based
# [18] = test system: BMDM; assay: Inhibition of RANKL-induced JNK activation in BMM (unknown origin) at 5 uM pretreated for 1 hr followed by RANKL stimulation for 5 to 15 mins by Western blot analysis; assay type: tissue-based
# [19] = test system: BMDM; assay: Inhibition of p38 MAPK in BMM (unknown origin) assessed as inhibition of RANKL/M-CSF-induced osteoclast differentiation by measuring reduction in TRAP-positive multinucleated cells at 5 uM treated on day 2-4 by TRAP staining based assay relative to control; settings: time 3.0 day
# [20] = test system: BMDM; assay: Inhibition of p38 MAPK in BMM (unknown origin) assessed as suppression of RANKL/M-CSF-induced actin ring formation at 5 uM incubated for 4 days by rhodamine phallodin/DAPI staining based analysis; settings: time 4.0 day
# [21] = test system: BMDM; assay: Inhibition of RANKL-induced ERK activation in BMM (unknown origin) at 5 uM pretreated for 1 hr followed by RANKL stimulation for 5 to 15 mins by Western blot analysis; assay type: tissue-based
# [22] = test system: BMDM; assay: Inhibition of M-CSF-induced Akt activation in BMM (unknown origin) at 5 uM pretreated for 1 hr followed by M-CSF stimulation for 5 to 30 mins by Western blot analysis; assay type: tissue-based
structure (smiles),measurement,setting,value
O=C(O[C@@H]1Cc2c(O)cc(O)cc2O[C@@H]1c1cc(O)c(O)c(O)c1)c1cc(O)c(O)c(O)c1,inhibition,[1],92%
O=C(O[C@@H]1Cc2c(cc(O)c(Cc3c(O)cc(O)c4c3O[C@H](c3cc(O)c(O)c(O)c3)[C@H](OC(=O)c3cc(O)c(O)c(O)c3)C4)c2O)O[C@@H]1c1cc(O)c(O)c(O)c1)c1cc(O)c(O)c(O)c1,inhibition,[2],Active
same,inhibition,[3],95.9%
same,inhibition,[4],inactive
same,inhibition,[5],98.1%
same,inhibition,[6],Active
same,inhibition,[7],Active
same,inhibition,[8],Active
same,inhibition,[9],inactive
same,inhibition,[10],Active
same,inhibition,[11],Active
same,inhibition,[12],Dose-dependent effect
same,Activity,[13],Non-Toxic
same,inhibition,[14],Active
same,inhibition,[15],Active
same,inhibition,[16],Active
same,inhibition,[17],inactive
same,inhibition,[18],inactive
same,inhibition,[19],34.5%
same,inhibition,[20],Active
same,inhibition,[21],inactive
same,inhibition,[22],inactive

# Source: ChEMBL document CHEMBL4665718, “Inhibitory effect of oolonghomobisflavan B on osteoclastogenesis by suppressing p38 MAPK activation” (Bioorg Med Chem Lett, 2020)
